The compounds below were run against HLA-DQ2 (Homo sapiens, UniProt P01909+P01920) (assay: Inhibition of IL-2 secretion by TCR transductants stimulated by α-gliadin peptides presented by HLA-DQ2 expressing K562 cells (ELISA)). Details: inhibition of IL-2 secretion at 200 uM; tested as trans racemate unless otherwise noted; lines naming several Examples = stereoisomer mixture of those Examples.
Assay type: cell-based
Description: Three commercially available analogues of the DQ2 binding molecules of the invention were tested for their ability to inhibit stimulation of T cell receptor (TCR) transductants in the presence of HLA-DQ2 expressing cells presenting known α-gliadin epitopes.
Using a previously published in vitro assay (Ostrov D, et al. Methyldopa blocks MHC class II binding to disease specific antigens in autoimmune diabetes. J Clin Invest. 2018:128 (5)) the ability of these DQ2 binding analogues to inhibit interleukin-2 (IL-2) secretion by TCR transductants stimulated by α-gliadin peptides presented by HLA-DQ2 was determined. Individual TCR transductants (recognizing a I-gliadin or a II-gliadin) were cultured with a gliadin peptide plus the small molecule analogues in the presence of HLA-DQ2 expressing K562 cells serving as antigen presenting cells. TCR transductants cultured with no gliadin peptide served as the negative control, and incubation with an anti-CD3 antibody (eBioscience; clone 2C11) served as a positive control for the TCR transductant. Secreted IL-2 in the culture supernatant was measured using a highly sensitive enzyme-linked immunosorbent assay (ELISA). […] Assays for effects on cell viability and for specificity, assayed in the absence of gliadin peptide or in the presence of a stimulating anti-CD3 antibody, were performed. Unless otherwise noted, the stereochemistry shown below represents the relative configuration. Further, unless otherwise noted, compounds were tested as the trans racemate.

Chain of HLA-DQ2 (P01920 33-261 limits assumed, other chains not shown): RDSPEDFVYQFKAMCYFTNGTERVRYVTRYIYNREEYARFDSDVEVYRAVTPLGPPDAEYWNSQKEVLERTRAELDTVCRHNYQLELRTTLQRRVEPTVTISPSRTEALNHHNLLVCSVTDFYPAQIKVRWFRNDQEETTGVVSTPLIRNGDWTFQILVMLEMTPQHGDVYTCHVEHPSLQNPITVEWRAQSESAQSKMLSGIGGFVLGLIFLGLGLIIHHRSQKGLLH

SMILES | % Inh at 200 uM
O=C(O)CCSCC(=O)N1CCN(C(=O)[C@@H]2C[C@H]2c2ccccc2)CC1 [Example 112] | D (D=0-24%)
O=C(O)CCCNCC(=O)N1CCN(C(=O)[C@@H]2C[C@H]2c2ccccc2)CC1 [Example 113] | D (D=0-24%)
O=C(O)CCCSCC(=O)N1CCN(C(=O)[C@@H]2C[C@H]2c2ccccc2)CC1 [Example 114] | D (D=0-24%)
O=C(CN1CCCC1=O)N1CCN(C(=O)[C@@H]2C[C@H]2c2ccccc2)CC1 [Example 115] | D (D=0-24%)

From patent US11945790B2 (ImmunoMolecular Therapeutics, Inc., priority 2020, dated 2024)
